The target in this assay is T1, DNA topoisomerase 1 (Topo1) (Spodoptera exigua, UniProt G1FWE7).
T1 construct: Topo70, N-terminally truncated, residues 337–930, GST fusion expressed in E. coli BL21 (DE3)
T1 sequence (G1FWE7 337-930): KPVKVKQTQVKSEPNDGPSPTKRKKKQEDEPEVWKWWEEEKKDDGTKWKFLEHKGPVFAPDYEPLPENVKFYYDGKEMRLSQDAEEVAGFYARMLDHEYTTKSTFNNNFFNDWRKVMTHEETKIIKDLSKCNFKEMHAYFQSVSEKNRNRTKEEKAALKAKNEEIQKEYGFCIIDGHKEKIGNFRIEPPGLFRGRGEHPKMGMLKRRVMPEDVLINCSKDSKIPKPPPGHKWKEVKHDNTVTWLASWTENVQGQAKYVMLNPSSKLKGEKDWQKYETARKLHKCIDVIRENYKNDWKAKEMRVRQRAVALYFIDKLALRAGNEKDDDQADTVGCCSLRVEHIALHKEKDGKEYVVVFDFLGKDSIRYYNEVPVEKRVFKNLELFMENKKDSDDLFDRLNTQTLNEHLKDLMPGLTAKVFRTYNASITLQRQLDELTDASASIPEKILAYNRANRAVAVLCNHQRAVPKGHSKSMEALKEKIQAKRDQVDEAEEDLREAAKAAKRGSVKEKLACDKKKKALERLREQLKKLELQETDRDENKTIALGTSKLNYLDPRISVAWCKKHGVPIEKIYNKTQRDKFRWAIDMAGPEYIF
Briefly: pBR322 DNA relaxation assay with purified recombinant Topo1, agarose gel densitometry. In kind it is biochemical.

One may read the EC50 as the concentration needed to bring the measured effect to its halfway point. `CC[C@@]1(O)C(=O)OCc2c1cc1n(c2=O)Cc2cc3ccccc3nc2-1` [CPT, Camptothecin]: the EC50 was found to be 4.42 µM.

`CC[C@@]1(O)C(=O)OCc2c1cc1n(c2=O)Cc2cc3cc(O)ccc3nc2-1` [HCPT, hydroxy-camptothecin]: the half-maximal effective concentration (EC50) stood at 15.2 µM.
